Like-named read-outs stand apart in the source and are kept apart here.
How the values were obtained:
ferritin (Mus musculus) [1] = tested on: T1, ferritin (Mus musculus); test: Western blot of ferritin expression (ferritin degradation) in B16F10 cells; assay type: cell-based, murine; conditions: B16F10 cells
T1 construct: ferritin expression levels in B16F10 cells were evaluated; endogenous in cells; host or cells: B16F10 (murine melanoma)
Description: Western blot analysis: After various treatments, ferritin expression levels in B16F10 cells were evaluated to investigate the DeFer-2-mediated ferritin degradation. Briefly, B16F10 cells were seeded in 6-well culture plates (5×10^4 cells per well) and cultured for 24 h. Then the medium in the corresponding wells except the negative control was replaced with 1 mL of medium containing ferritin degraders, albumin nanoparticles, the epimer formulations, the combination of VHL ligand and oleic acid, or the combination of the degrader and VHL ligand at the indicated concentrations. […] The lysates were centrifuged at 12,000 rpm for 10 min at 4° C., followed by quantification of the total proteins in the supernatant through the bicinchoninic acid assay (BCA) assay. Afterward, the proteins in the supernatant were mixed with the loading buffer and heated at 95° C. for 15 min. Equal amounts of proteins from different samples were loaded into 15% SDS-polyacrylamide gel (20 μg protein per lane) to separate target proteins. After separation, proteins were transferred to polyvinylidene fluoride (PVDF) membranes before the membranes were blocked with 5% nonfat milk in PBST. Then proteins were incubated with primary antibodies overnight at 4° C., followed by the incubation with the goat-anti-rabbit IgG H&L (HRP) secondary antibodies at room temperature for 2 h. Finally, the bands were detected with electrochemiluminescence (ECL) western blot substrate for imaging, and ImageJ software was used for quantification.

ferritin (Mus musculus) [2] = tested on: T1, ferritin (Mus musculus); test: Quantitative proteomics analysis of whole-cell B16F10 proteins; assay type: cell-based, murine; conditions: B16F10 cells, 0.5 μM, 12 h
Description: Quantitative proteomics analysis: Cell culture and proteomic sample preparation: B16F10 cells were seeded in T75 cell culture flasks (2×10^6 cells per well) and cultured for 24 h. […] After incubation for 12 h, cells were washed with cold PBS twice and digested with 2 mL trypsin. The cell pellets were collected in 1.5 mL Eppendorf tubes through centrifugation at 1200 rpm for 3 minutes at 4° C. As for the proteomic sample preparation, cell pellets placed on the ice were completely resuspended with a cold 100 mM ammonium bicarbonate (ABC) solution. […] Based on the quantification results, an appropriate volume of lysate supernatant containing 20 μg proteins was collected and incubated with 10 mM DL-dithiothreitol (DTT) at 37° C. for 30 min. […]
LC-MS/MS analysis: The LC separations were performed with a Waters™ Nano-Acquity UPLC System. […] Eluted peptides were analyzed on Thermo Orbitrap Q-Exactive™ MS operated in positive ion mode with nano-ESI high-resolution Q-Exactive™ analysis. […]
Data analysis: All the resulting raw files were analyzed using Proteome Discoverer software v.2.4 (Thermo Fisher Scientific), SEQUEST HT using Uniprot Mus musculus reference proteome with a decoy database added to establish control variability and false discovery rates. […]

B16F10 cells [3] = test: ROS detection with DCFH-DA; assay type: cell-based, murine; conditions: 5 μM, 8 h, compared to DeFer-2epi and VHL ligand plus OA
Description: ROS detection: DCFH-DA was used to evaluate the generation of intracellular ROS in cancer cells. 5×10^4 B16F10 cells were seeded in confocal dishes and cultured for 24 h at 37° C. […] After incubation for 8 h, cells were stained with DCFH-DA (10 μM) for 30 min. Finally, the cells were washed with PBS and subjected to Leica SP8 Confocal WLL STED Microscope for observation.

B16F10 cells [4] = test: Cell viability evaluation by CCK-8 assay; conditions: for IC50: Mus musculus, read-out: IC50 of cell viability
Description: Cell viability evaluation: The cell viability of B16F10 cells treated with ferritin degraders with or without various inhibitors was evaluated by CCK-8 assay. Briefly, 5×10^3 cells were seeded in 96-well plates and cultured for 24 h for attachment. Then the medium in the corresponding wells, except the control, was replaced with 100 μL of medium containing the indicated degrader formulations with concentrations of 0.008, 0.04, 0.2, 1, and 5 μM. After incubation for 24 or 48 h, CCK-8 reagent was added and interacted with cells at 37° C. for 1 h. The absorbance was measured by a microplate reader (Infinite M Plex) at the detection wavelength of 450 nm.
For blocking assays with Z-VAD, NSCI, and VX-765, 5×10^3 cells were seeded in 96-well plates and cultured 24 h for attachment. Then the medium in the corresponding wells, except the control, was replaced with 100 μL of medium containing Z-VAD (10 μM), NSCI (0.1 μM), or VX-765 (10 μM). […] Following another 24-h incubation, CCK-8 reagents were added and interacted with cells at 37° C. for 1 h. The absorbance was measured by a microplate reader (Infinite® M Plex) at the detection wavelength of 450 nm. For blocking assays with DFOM, 5×10^3 cells were seeded in 96-well plates and cultured 24 h for attachment. […] Following another 20-h incubation, CCK-8 reagents were added and interacted with cells at 37° C. for 1 h. The absorbance was measured by a microplate reader (Infinite® M Plex) at the detection wavelength of 450 nm.

In the case of CCCCCCCCC=CCCCCCCCC(=O)NCCCC(=O)NC(C(=O)N1CC(O)CC1C(=O)NCc1ccc(-c2scnc2C)cc1)C(C)(C)C (stereo not shown) [DeFer-2], the “ferritin expression over time” value (ferritin (Mus musculus) [1]; 0.5 μM, 0-24 h) is reported as “reduced the ferritin expression in a time-dependent manner”, the ferritin degradation (ferritin (Mus musculus) [1]; 0.5 μM, 12 h (FIG. 5A)) is reported as “successfully induced the ferritin degradation” and the “degradation capacity compared among the three PROTACs” value (ferritin (Mus musculus) [1]; 0.5 μM, different time points) is reported as “most potent degradation capacity with a longer duration of action”. The maximum ferritin degraded (ferritin (Mus musculus) [1]; 5 μM, 12 h) was 58%, the “reduction of ferritin levels compared to DeFer-2epi” value (ferritin (Mus musculus) [2]; proteomics) was 44.1% and the “selectivity of ferritin degradation (global protein abundance)” value (ferritin (Mus musculus) [2]; versus DeFer-2epi) was “strong on-target effect”. For the same compound, the ROS level (B16F10 cells [3]) was “sharp rise in the ROS level”, the “cytotoxicity against B16F10 cells” value (B16F10 cells [4]) was “severe cytotoxicity” and the IC50 (B16F10 cells [4]; B16-F10, 24 h) was 3100 nM. It also gave an IC50 (B16F10 cells [4]; B16-F10, 48 h) of 1500 nM.

Reference: patent US20260273074A1, “FERRITIN-TARGETING PROTACS AND METHODS OF INDUCING PYROPTOSIS” (Wisconsin Alumni Research Foundation, priority 2023, published 2026)
